In patent publication US10039846B2, “Compositions targeting bradykinin receptor B1 for medical imaging of cancer and other disorders” (BRITISH COLUMBIA CANCER AGENCY BRANCH, priority 2012, dated 2018):
Where “and” joins values, the source holds several entries; their conditions need not be identical. Equal entries are not always repeated. Where two headings read alike, the source gives them in different places. Where a SMILES comes first, the peptide text is derived from it. [ ]: non-standard residue; d: D form. The star is where a group is joined. DOTA = O=C(O)CN1CCN(CC(=O)O)CCN(CC(=O)*)CCN(CC(=O)O)CC1; Hyp = O=C(O)[C@@H]1C[C@@H](O)CN1; Cha = N[C@@H](CC1CCCCC1)C(=O)O; PEG2 = NCCOCCOCCC(=O)O

Assays:
[1] = target: T1, B1R (Homo sapiens, UniProt P46663); experiment: Competitive binding assay with 3H radioligand on CHO-K1 cell membranes over-expressing human B1R; set-up: purchased Perkin Elmer Inc., Waltham, Mass; ES-091-M400UA; host or cells: CHO-K1 cells over-expressing human B1R (membrane preparation)
T1 sequence (P46663 1-353): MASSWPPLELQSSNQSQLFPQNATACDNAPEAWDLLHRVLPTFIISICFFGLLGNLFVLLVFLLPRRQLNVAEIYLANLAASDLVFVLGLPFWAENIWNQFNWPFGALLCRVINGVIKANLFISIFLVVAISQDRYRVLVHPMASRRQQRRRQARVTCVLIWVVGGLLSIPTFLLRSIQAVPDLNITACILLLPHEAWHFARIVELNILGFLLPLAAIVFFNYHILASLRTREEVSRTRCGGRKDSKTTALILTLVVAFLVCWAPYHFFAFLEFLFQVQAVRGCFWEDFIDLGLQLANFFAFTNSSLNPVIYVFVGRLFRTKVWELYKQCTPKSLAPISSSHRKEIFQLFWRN
Protocol: The ability of the peptide and small molecule B1R targeting compounds to bind to B1R was assessed in competitive binding assay as described below.
Preparation of Cell Membranes: Ready to use cell membranes (12.5 μg/μL) from CHO-K1 cells over-expressing human B1R were obtained from Perkin Elmer Inc., Waltham, Mass. (cat. no. ES-091-M400UA). Binding using cell membranes from HEK293T::GFP::hB1R (from Example 3) was also tested. In the latter case, the membranes were prepared as follows: 90% confluent cells grown in large flask, T225, were detached and pelleted in a 50 mL conical tube using centrifuge at 1,200 rpm for 5 minutes. Afterward, cells were re-suspended in 20-30 mL of cold 50 mM Tris-HCl pH 7.4. Ice cold cells were disrupted for 15 seconds at 15,000 rpm with a Polytron PT3100 (Kinematica AG, Lucerne, Switzerland). The solution was aliquoted and centrifuged at 4° C. at 17,000×g for 30 minutes. The supernatant was discarded, and then the pellet was dissolved in 1-2 mL of cold salt solution containing 50 mM Tris-HCl pH 7.4 and 100 mM NaCl and incubated for 1 hour on ice. The cell membranes were pelleted by centrifugation at 4° C. at 17,000×g for 30 minutes and resuspended in 200-600 μL of 50 mM Tris-HCl pH 7.4. The cell membrane extract was stored at −80° C. Protein concentration was determined by Bradford assay (cat. no. R1271, Fermentas, Thermo Fisher Scientific, Burlington, ON). 50 ug of cell membranes per well was used for the competitive binding assay. […] Radio-labelled control was H-3 labelled [Leu^9,des-Arg^10] kallidin obtained either from American Radiolabelled Chemicals Inc, St. Louis, Mo.
Competitive Binding Assays: Assays were performed using 96-well MultiScreenHTS with glass fiber filter and PVDF support obtained from Millipore Corp, Billerica, Mass. (cat. no. MSFB N6B, lot no. R8AN42424). Wells of the MultiScreen plate were pre-soaked with 0.5% of cold Poly(ethyleneimine) (PEI) (cat. no. P3143, Sigma-Aldrich, St. Louis, Mo.) for 30 minutes. Afterward, wells were washed once with 50 mM of Tris-HCl pH 7.4. Total volume per wells was 200 μL. A fixed concentration of the hot radioligand (1, 3, 5 or 12.5 nM depending on the radioligand; see Table 5) was incubated with progressively higher concentrations (10^−11 to 10^−4 M) of the non-radioactive competitor of interest in the presence of cell membranes (50 μg/well) and the assay buffer (50 mM Tris-HCl pH 7.4, 5 mM MgCl2). The MultiScreen plate was then incubated at 27° C. for 15 minutes with agitation at 300 rpm. The assay was stopped by suctioning the reaction solution through the bottom PVDF membrane filter and discarded. The membranes were washed 7× with 150 μL/well of cold 50 mM Tris-HCl pH 7.4. Radioactivity was counted using 1450 MicroBeta TriLux—Microplate Scintillation and Luminescence Counter (Perkin Elmer Inc., Shelton, Conn.).

[2] = test system: HEK-293 and HEK-293/BKRB1 tumours; experiment: Biodistribution of Ga-68 Peptide 12 in tumour-bearing mice; assay type: in vivo, mouse; set-up: Biodistribution Spleen Average / Biodistribution Liver Average / Biodistribution Adrenal glands Average / Biodistribution Kidney Average / Biodistribution Muscle Average / Biodistribution Brain Average / Biodistribution Blood Average / Biodistribution Fat Average: unit not given here; details: 1 h post-injection
Text: Peptide 12 is an […] version of Peptide 3 that was developed by substituting the C-terminal Leu residue with a D-Phe residue.

[3] = in vivo; details: NODSCID IL2RKO, mouse, iv, total radioactivity
Protocol: Tumour Implantation: Imaging and biodistribution experiments were performed using NODSCID IL2RKO mice. Each cage, equipped with enrichments, contained three or four mice. The mice were maintained and the experiments were conducted in accordance with the guidelines established by Canadian Council on Animal Care and approved by Animal Ethics Committee of the University of British Columbia. Mice were housed under pathogen-free conditions and kept on twelve hour light and twelve hour dark cycle in the Animal Research Centre, British Columbia Cancer Research Centre, Vancouver, Canada.
Mice were anesthetised briefly with 2.5% isoflurane in 2.0 L/min of oxygen during cell implantation. After wiping the skin surrounding the injection site with an alcohol prep pad, a 31-Gauge needle was used to inject 10^7 HEK293T::GFP and HEK293T::hB1R cells in matrigel (1:1) on the back of the mouse. Imaging was performed once the tumour lump was visible. Tumour size was measured by CT and calculated using the ellipsoid formula: V^3mm=width×length×thickness×0.524.
PET/CT Imaging: Each tumour-bearing mouse was injected with ˜3.7 MBq of Ga-68 labelled Peptide 3 through the tail vein. The mice were imaged using the BC Cancer Agency Inveon microPET/CT scanner that has a 1.3 mm spatial resolution and a high sensitivity. Briefly, a localization CT scan was first obtained using 3 overlapping positions to cover the entire mouse. This CT scan was used for attenuation and scatter correction after segmentation for reconstructing the PET images. A dynamic acquisition was then performed for 60 minutes, with the mouse under isoflurane sedation. The animals were kept warm by a monitoring system with an integrated heating pad and physiological acquisition system. At the end of the acquisition, the mice were euthanized, and major organs were collected, weighed, and counted to determine the % injected dose per gram of tissue (% ID/g). The images were reconstructed using OSEM/3DMAP iterative reconstruction, and representative images of Ga-68 labelled Peptide 3 at 1 h post-injection are shown in FIG. 4.

[4] = Hot 12.5 nM BK-AG-ARC, CHO-K1 membranes, individual assays, read-out: Ki
[5] = average of individual competitive binding assays, read-out: Affinity Ki (nM) Average

Cc1ccc(S(=O)(=O)N2c3ccccc3NC(=O)[C@H]2CC(=O)NCc2ccc(NCCF)cc2)cc1 [Compound 8] gave a Ki [1, 4] of 6920 nM and a Ki [1, 5] of 6920 nM.

For N=C(N)NCCC[C@H](NC(=O)[C@H](CCCCN)NC(=O)CCCCCNC(=O)CN1CCN(CC(=O)O)CCN(CC(=O)O)CCN(CC(=O)O)CC1)C(=O)N1CCC[C@H]1C(=O)N1C[C@H](O)C[C@H]1C(=O)NCC(=O)N[C@@H](CC1CCCCC1)C(=O)N[C@@H](CO)C(=O)N1CCC[C@H]1C(=O)N[C@H](Cc1ccccc1)C(=O)O [Ga-68 Peptide 12, ^68Ga-DOTA-Ahx-Lys-Arg-Pro-Hyp-Gly-Cha-Ser-Pro-(D-Phe), metal not drawn], the “Biodistribution Adrenal glands Average” value ([2]; Adrenal glands) was 0.001, the “Biodistribution Blood Average” value ([2]; Blood) was 0.039 and the Biodistribution Bone Average ([2]; Bone) was 0.093 %ID/g. The “Biodistribution Brain Average” value ([2]; Brain) was 0.009, the “Biodistribution Fat Average” value ([2]; Fat) was 0.039 and the Biodistribution Heart Average ([2]; Heart) was 0.15 %ID/g. For the same compound, the “Biodistribution Kidney Average” value ([2]; Kidney) was 6.436, the Biodistribution Large intestine Average ([2]; Large intestine) was 0.149 %ID/g and the Biodistribution Left tumour Average ([2]; Left tumour) was 0.194 %ID/g. The “Biodistribution Liver Average” value ([2]; Liver) was 0.129, the Biodistribution Lungs Average ([2]; Lungs) was 0.8 %ID/g and the “Biodistribution Muscle Average” value ([2]; Muscle) was 0.056. For the same compound, the “Biodistribution Pancreas Average” value ([2]; Pancreas) was 0.069, the Biodistribution Plasma Average ([2]; Plasma) was 0.473 %ID/g and the “Biodistribution Right tumour Average” value ([2]; Right tumour, in %ID/g) was 7.909. The Biodistribution Seminal glands Average ([2]; Seminal glands) was 0.23 %ID/g, the Biodistribution Skin Average ([2]; Skin) was 0.223 %ID/g and the Biodistribution Small intestine Average ([2]; Small intestine) was 0.208 %ID/g. The “Biodistribution Spleen Average” value ([2]; Spleen) was 0.127, the Biodistribution Tail Average ([2]; Tail) was 0.226 %ID/g and the Biodistribution Testes Average ([2]; Testes) was 0.132 %ID/g.

In the case of Cc1ccc(S(=O)(=O)N2c3ccccc3NC(=O)[C@H]2CC(=O)Nc2ccc(N3CCN(CCF)CC3)cc2)cc1 [Compound 7], the Ki [1, 4] is reported as 113 nM and 39.5 nM and 260 nM, the Ki ([1]; Hot 12.5 nM BK-ANT-ARC, CHO-K1 membranes, individual assays, read-out: Ki) is reported as 20.7 nM and the Ki [1, 5] is reported as 108 nM.

In the case of COc1cc(C)c(S(=O)(=O)N(C)CCOCC(=O)N2CCC(C3CCN(CCF)CC3)CC2)c(C)c1 [Compound 15], the Ki ([1]; Hot 4.5 nM BK-ANT-ARC, CHO-K1 membranes, individual assays, read-out: Ki) is reported as 0.81 nM and the Ki [1, 5] is reported as 0.81 nM.

Cc1ccc(S(=O)(=O)N2c3ccccc3NC(=O)[C@H]2CC(=O)NCCc2ccc(NCCF)cc2)cc1 [Compound 6] showed a Ki [1, 4] of 1010 nM and a Ki [1, 5] of 1010 nM.

In the case of CC(C)C[C@H](NC(=O)[C@@H]1CCCN1C(=O)[C@H](CO)NC(=O)[C@H](CC1CCCCC1)NC(=O)CNC(=O)[C@@H]1C[C@@H](O)CN1C(=O)[C@@H]1CCCN1C(=O)[C@H](CCCNC(=N)N)NC(=O)[C@H](CCCCN)NC(=O)CCOCCOCCNC(=O)CN1CCN(CC(=O)O)CCN(CC(=O)O)CCN(CC(=O)O)CC1)C(=O)O [Ga-68 Peptide 3, ^68Ga-DOTA-PEG2-Lys-Arg-Pro-Hyp-Gly-Cha-Ser-Pro-Leu, metal not drawn] ({DOTA-PEG2}-KRP[Hyp]G[Cha]SPL-OH), the tissue uptake at 1 h ([3]; 3.7 MBq, % ID/g Blood Average) is reported as 0.26 %ID/g, the tissue uptake at 1 h ([3]; 3.7 MBq, % ID/g Bone Average) is reported as 0.34 %ID/g and the tissue uptake at 1 h ([3]; 3.7 MBq, % ID/g Brain Average) is reported as 0.03 %ID/g. The tissue uptake at 1 h ([3]; 3.7 MBq, % ID/g Colon Average) was 0.34 %ID/g, the tissue uptake at 1 h ([3]; 3.7 MBq, % ID/g Fat Average) was 0.12 %ID/g and the tissue uptake at 1 h ([3]; 3.7 MBq, % ID/g Heart Average) was 0.19 %ID/g. It also gave a tissue uptake at 1 h ([3]; 3.7 MBq, % ID/g LEFT Tumour (B1R) Average) of 1.32 %ID/g, a tissue uptake at 1 h ([3]; 3.7 MBq, % ID/g Left Kidney Average) of 5.14 %ID/g and a tissue uptake at 1 h ([3]; 3.7 MBq, % ID/g Liver Average) of 0.16 %ID/g. It also gave a tissue uptake at 1 h ([3]; 3.7 MBq, % ID/g Lungs Average) of 0.43 %ID/g, a tissue uptake at 1 h ([3]; 3.7 MBq, % ID/g Muscle Average) of 0.11 %ID/g and a tissue uptake at 1 h ([3]; 3.7 MBq, % ID/g Pancreas Average) of 0.13 %ID/g. It also gave a tissue uptake at 1 h ([3]; 3.7 MBq, % ID/g Plasma Average) of 0.77 %ID/g, a tissue uptake at 1 h ([3]; 3.7 MBq, % ID/g RIGHT Tumour (GFP) Average) of 0.23 %ID/g and a tissue uptake at 1 h ([3]; 3.7 MBq, % ID/g Right Kidney Average) of 6.79 %ID/g. It also gave a tissue uptake at 1 h ([3]; 3.7 MBq, % ID/g Small Intestine Average) of 0.2 %ID/g, a tissue uptake at 1 h ([3]; 3.7 MBq, % ID/g Spleen Average) of 0.11 %ID/g and a tissue uptake at 1 h ([3]; 3.7 MBq, % ID/g Stomach Average) of 0.11 %ID/g. The tissue uptake at 1 h ([3]; % ID/g Tail Average) was 0.45 %ID/g.
